Test results published in ChEMBL document CHEMBL3769380, “New Synthetic Routes to Triazolo-benzodiazepine Analogues: Expanding the Scope of the Bump-and-Hole Approach for Selective Bromo and Extra-Terminal (BET) Bromodomain Inhibition” (J Med Chem, 2016).

Columns and labels:
DH5-alpha [1] = assay: Selectivity ratio of Kd for N-terminal His6-tagged BRD2 bromodomain 1 (unknown origin) expressed in competent Escherichia coli BL21(DE3) cells to Kd for BRD2 bromodomain 1 L110A mutant (unknown origin) expressed in competent Escherichia coli DH5-alpha cells; conditions: Homo sapiens
DH5-alpha [2] = assay: Selectivity ratio of Kd for N-terminal His6-tagged BRD2 bromodomain 2 (unknown origin) expressed in competent Escherichia coli BL21(DE3) cells to Kd for BRD2 bromodomain 2 L383A mutant (unknown origin) expressed in competent Escherichia coli DH5-alpha cells; conditions: Homo sapiens
DH5-alpha [3] = assay: Selectivity ratio for BRD2 bromodomain 1 L110A mutant (unknown origin) expressed in competent Escherichia coli DH5-alpha cells over N-terminal His6-tagged BRD2 bromodomain 1 (unknown origin) expressed in competent Escherichia coli BL21(DE3) cells by differential scanning fluorimetry; conditions: Homo sapiens
DH5-alpha [4] = assay: Selectivity ratio for BRD2 bromodomain 2 L383A mutant (unknown origin) expressed in competent Escherichia coli DH5-alpha cells over N-terminal His6-tagged BRD2 bromodomain 2 (unknown origin) expressed in competent Escherichia coli BL21(DE3) cells by differential scanning fluorimetry; conditions: Homo sapiens
[5] = target: T1, Bromodomain-containing protein 2 (Homo sapiens, UniProt P25440); assay: Binding affinity to recombinant poly-His-tagged BRD2 bromodomain 1 (unknown origin) by isothermal titration calorimetry
[6] = target: T1, Bromodomain-containing protein 2; assay: Binding affinity to recombinant poly-His-tagged BRD2 bromodomain 2 (unknown origin) by isothermal titration calorimetry

T1 sequence (P25440 whole entry): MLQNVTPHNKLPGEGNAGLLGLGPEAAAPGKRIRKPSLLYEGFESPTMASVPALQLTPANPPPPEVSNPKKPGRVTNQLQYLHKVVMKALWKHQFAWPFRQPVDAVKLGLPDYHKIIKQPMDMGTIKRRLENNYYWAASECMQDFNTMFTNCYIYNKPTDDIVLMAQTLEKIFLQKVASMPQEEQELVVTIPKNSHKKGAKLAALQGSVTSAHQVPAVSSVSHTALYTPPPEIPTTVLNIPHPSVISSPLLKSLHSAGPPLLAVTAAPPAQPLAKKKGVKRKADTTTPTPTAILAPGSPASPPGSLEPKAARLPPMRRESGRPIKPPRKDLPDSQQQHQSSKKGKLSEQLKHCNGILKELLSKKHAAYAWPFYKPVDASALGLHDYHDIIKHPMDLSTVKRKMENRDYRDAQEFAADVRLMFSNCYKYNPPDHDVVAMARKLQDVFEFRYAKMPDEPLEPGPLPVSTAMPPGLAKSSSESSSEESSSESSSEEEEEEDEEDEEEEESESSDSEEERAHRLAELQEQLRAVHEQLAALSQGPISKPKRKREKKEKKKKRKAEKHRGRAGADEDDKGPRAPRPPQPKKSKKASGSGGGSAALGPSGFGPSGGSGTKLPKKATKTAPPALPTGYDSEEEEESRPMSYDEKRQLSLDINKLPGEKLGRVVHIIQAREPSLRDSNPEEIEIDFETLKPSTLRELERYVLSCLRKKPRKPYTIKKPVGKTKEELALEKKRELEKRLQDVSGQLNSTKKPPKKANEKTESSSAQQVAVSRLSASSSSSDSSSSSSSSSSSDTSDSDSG

SMILES | Selectivity ratio (DH5-alpha [1]) | Selectivity ratio (DH5-alpha [2]) | Selectivity ratio (DH5-alpha [3]) | Selectivity ratio (DH5-alpha [4]) | Kd [5] [µM] | Kd [6] [µM]
CC[C@@H](C(=O)OC)[C@@H]1N=C(c2ccc(Cl)cc2)c2cc(OC)ccc2-n2c(C)nnc21 | < 540 | < 540 | < 540 | < 540 |  | 
CC(=O)NCCCCn1c2c(c3ccccc31)C(=O)NCC2 |  |  |  |  | 8.6 | > 300
